Data as given in patent publication US20130189186A1, “APOPTOSIS IMAGING AGENTS BASED ON LANTIBIOTIC PEPTIDES” (GE HEALTHCARE LIMITED, priority 2010, published 2013).

Test system: phosphatidyl ethanolamine
Test: Biacore affinity for phosphatidyl ethanolamine (POPE/POPC liposomes captured on L1 chip)
Assay type: binding
Details: Biacore 3000, L1 chip, POPE/POPC liposomes (20% PE)
From the text: A Biacore 3000 (GE Healthcare, Uppsala) was equipped with an L1 chip. Liposomes made of POPE/POPC (20% PE) were applied for the affinity study using the capture technique recommended by the manufacturer. Each run consisted of activation of the chip surface, immobilization of liposomes, binding of peptide and wash off of both liposomes and peptide (regeneration). Similar applications can be found in Frostell-Karlsson et al [Pharm. Sciences, V.94 (1), (2005)]. Thorough washing of needle, tubing and liquid handling system with running buffer was performed after each cycle.
BIACORE software: The BIACORE control software including all method instructions was applied. A method with commands was also written in the BIACORE Method Definition Language (MDL) to have full control over pre-programmed instructions. BIACORE evaluation software was applied for analysing the sensorgrams.

Duramycin
ka: ~20000 M⁻¹ s⁻¹
